Results published in patent US6191130A, “Cyclohexane derivatives difunctionalised in 1,4 as ligands of 5T H1A receptors” (Pierre Fabre Medicament, priority 1997, dated 2001).
Read-outs that look alike come from different tables or passages of the source.

Legend:
α1-adrenergic receptor = assay: Binding to the α1-adrenergic receptor (displacement of [3H]prazosin, rat cortex); design: species or system male Sprague-Dawley rat; conditions: mean of at least 3 experimentations
Method: (§1) Binding to the 5-HT1A, D2 dopaminergic and α1-adrenergic receptors:
(§2) Brains from male Sprague-Dawley 180-200 g rats [Ico: OFA SD (I.O.P.S. Caw); Iffa Credo, France], maintained at -70° C., were used in all the studies.
(§3) The affinity of the products for the various receptors was determined by displacement of radioactive ligands under the conditions summarized in Table 1.
(§4) The reaction is halted by rapid filtration, under vacuum, through Whatman GF/B filters and the tubes are rinsed with 2×5 ml of Tris-HCl 50 mM, pH 7.4, buffer at 25° C. The radioactivity collected on the filter is analyzed by liquid scintillation after addition of 4 ml of liquid scintillant (Emulsifier Safe, Packard). All the experiments are carried out in triplicate.
(§5) The pKi (-log Ki) values are given in the form of the mean±SEM of at least 3 experimentations (Table 2).

D2 dopaminergic receptor = biological target: T1, D2 dopaminergic receptor (Rattus norvegicus, UniProt P61169); assay: Binding to the D2 dopaminergic receptor (displacement of [3H]YM-09151-2, rat striatum); design: species or system male Sprague-Dawley rat; conditions: read-out: pKi D2 (converted)
T1 construct: Brains from male Sprague-Dawley 180-200 g rats; tissue Iffa Credo, France (animals); host or cells: rat brain striatum
T1 sequence (P61169 whole entry): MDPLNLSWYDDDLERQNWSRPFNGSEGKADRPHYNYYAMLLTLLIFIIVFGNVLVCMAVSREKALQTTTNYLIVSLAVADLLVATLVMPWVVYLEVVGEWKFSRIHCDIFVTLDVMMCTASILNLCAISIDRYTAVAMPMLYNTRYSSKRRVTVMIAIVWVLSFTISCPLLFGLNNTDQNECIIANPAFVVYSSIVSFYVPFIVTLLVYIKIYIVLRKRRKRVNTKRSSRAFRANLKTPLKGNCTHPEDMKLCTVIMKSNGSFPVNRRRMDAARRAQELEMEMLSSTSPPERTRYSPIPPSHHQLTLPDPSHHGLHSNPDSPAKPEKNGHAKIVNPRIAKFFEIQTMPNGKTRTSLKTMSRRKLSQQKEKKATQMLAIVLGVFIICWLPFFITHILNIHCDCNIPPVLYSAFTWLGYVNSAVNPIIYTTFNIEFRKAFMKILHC
Method: as §1, §2, §3, §4
(§6) The inhibition constants (Ki) of the products are estimated from the displacement experimentations by using the EBDA (equilibrium binding data analysis) Radlig Version 4 non linear regression program (Biosoft, Cambridge, UK; McPherson, 1985).
as §5

[1] = Antidepressant activity: Forced swimming test; type: in vivo; conditions: percentage of animals with significant decrease (p<0.05) in immobility time vs control; po
5-HT1A receptor [2] = biological target: T2, 5-HT1A receptor (Rattus norvegicus, UniProt P19327); assay: 5-HT syndrome (serotoninergic syndrome) in the male rat; type: in vivo, male rat (Sprague-Dawley); design: carried out with the male rat (Sprague-Dawley); from tissue; host or cells: whole living rat (Sprague-Dawley); conditions: po
T2 sequence (P19327 1-422): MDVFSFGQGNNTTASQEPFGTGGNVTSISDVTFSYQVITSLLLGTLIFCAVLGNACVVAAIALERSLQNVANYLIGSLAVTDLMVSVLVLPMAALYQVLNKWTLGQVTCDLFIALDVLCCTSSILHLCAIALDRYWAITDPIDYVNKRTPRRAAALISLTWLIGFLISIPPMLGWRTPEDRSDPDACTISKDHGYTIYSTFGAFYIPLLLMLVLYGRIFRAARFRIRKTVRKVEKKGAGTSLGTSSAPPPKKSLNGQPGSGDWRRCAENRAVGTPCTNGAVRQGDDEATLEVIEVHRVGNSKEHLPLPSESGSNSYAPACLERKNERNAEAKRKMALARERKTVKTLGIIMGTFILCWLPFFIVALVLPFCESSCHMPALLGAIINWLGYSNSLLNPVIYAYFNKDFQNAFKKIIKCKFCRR
Method: The central activity of the compounds of the invention was evaluated by their ability to provoke the 5-HT syndrome, which is characterized by:
an alternating bending and stretching of the forepaws (reciprocal fore-paw treading: FPT)
the retraction of the lower lip (lower lip retraction: LLR)
a position or the ventral surface of the animal is in contact with the ground and the hind paws extended (flat body posture: FBP).
The experiments on the evaluation of the 5-HT syndrome are carried out with the male rat (Sprague-Dawley) according to the technique described by F. C. Colpaert et al. (Drug. Dev. Res., 26, 21-48, 1992) and M. S. Kleven et al. (J.P.E.T., 282, 747-759, 1997).

5-HT1A receptor [3] = biological target: T2, 5-HT1A receptor; assay: Binding to the 5-HT1A receptor (displacement of [3H]8-OH-DPAT, rat cortex); design: Brains from male Sprague-Dawley 180-200 g rats; tissue Iffa Credo, France (animals); host or cells: rat brain cortex; species or system male Sprague-Dawley rat; conditions: read-out: pKi 5-HT1A (converted)
Method: as §1, §2, §3, §4, §6, §5
10 A Assie and Koek, Eur. J.

[4] = FBP, read-out: ED50 FBP (flat body posture)
[5] = FPT, read-out: ED50 FPT (reciprocal fore-paw treading)
[6] = LLR, read-out: ED50 LLR (lower lip retraction)

| pKi α1 (α1-adrenergic receptor) | Ki (D2 dopaminergic receptor) [nM] | ED50 (5-HT1A receptor [2]; [4]) [mg/kg] | ED50 (5-HT1A receptor [2]; [5]) [mg/kg] | ED50 (5-HT1A receptor [2]; [6]) [mg/kg] | Ki (5-HT1A receptor [3]) [nM] | SMILES | ED50 [1] [mg/kg] |
| --- | --- | --- | --- | --- | --- | --- | --- |
| 5.89 | > 10000 | 0.08 | 0.08 | < 0.04 | 0.603 | Cc1cc(C)nc(N2CCN([C@H]3CC[C@H](n4ncc(=O)n(C)c4=O)CC3)CC2)n1 [Compound 5, trans-4-Methyl-2-[4-[4-(4,6-dimethylpyrimidin-2-yl)piperizin-1-yl]cyclohexyl]-2H-[1,2,4]triazine-3,5-dione] | 0.31 |
| 5.72 | > 10000 | 0.02 | 0.08 | 0.02 | 0.251 | Cc1cc(C)nc(N2CCN([C@H]3CC[C@H](Oc4cnn(C)c(=O)n4)CC3)CC2)n1 [Compound 11, Trans-2-Methyl-5-[4-[4-(4,6-Dimethyl-Pyrimidin-2-Yl)Piperazin-1-Yl]Cyclohexyloxy]-2H-[1,2,4]triazin-3-one] | 0.08 |
| < 5.0 | > 10000 | 1.25 | 1.25 | 0.31 | 3.72 | Cn1c(=O)cnn([C@H]2CC[C@H](N3CCN(c4ncccn4)CC3)CC2)c1=O [Compound 4, Trans-4-Methyl-2-[4-(4-Pyrimidin-2-Yl-Piperazin-1-Yl)Cyclohexyl]-2H-[1,2,4]Triazine-3,5-Dione] | 1.25 |
| 5.95 | > 10000 | 0.08 | 0.08 | 0.02 | 0.251 | Cc1ccnc(N2CCN([C@H]3CC[C@H](Oc4cnn(C)c(=O)n4)CC3)CC2)n1 [Compound 10, trans-2-Methyl-5-[4-[4-(4-methylpyrimidin-2-yl)piperazin-1-yl]cyclohexyloxy]-2H-[1,2,4]triazin-3-one] | 0.08 |
| 6.50 | 89.1 | 1.25 | 5 | 1.25 | 1.23 | O=C(NCCN1CCN(c2cccc3c2OC[C@H](CO)O3)CC1)c1ccc(F)cc1 [Flesinoxan, reference compound] | 1.25 |
| 7.74 | 603 | – | – | – | 0.398 | Cn1nc(N[C@H]2CC[C@H](N3CCN(c4cccc(Cl)c4)CC3)CC2)c(=O)n(C)c1=O [Compound 17, trans-6-{4-[4-(3-Chlorophenyl)piperazin-1-yl]cyclohexylamino}-2,4-dimethyl-2H-[1,2,4]triazine-3,5-dione] | – |
| – | – | 0.31 | 0.31 | 0.08 | – | Cn1ncc(O[C@H]2CC[C@H](N3CCN(c4nccc(C(F)(F)F)n4)CC3)CC2)nc1=O [Compound 14, Trans-2-Methyl-5-[4-[4-(4-Trifluoro-Methylpyrimidin-2-Yl)Piperazin-1-Yl]Cyclohexyloxy]-2H-[1,2,4]Triazin-3-One] | – |
| 6.10 | > 10000 | 0.08 | 0.08 | 0.08 | 0.813 | Cc1ccnc(N2CCN([C@H]3CC[C@H](n4ncc(=O)n(C)c4=O)CC3)CC2)n1 [Compound 6, Trans-4-Methyl-2-[4-[4-(4-Methylpyrimidin-2-Yl)Piperazin-1-Yl]Cyclohexyl]-2H-[1,2,4]triazine-3,5-dione] | – |
| – | – | 1.25 | > 2.5 | 0.31 | – | Cn1ncc(O[C@H]2CC[C@H](N3CCN(c4ncc(F)cn4)CC3)CC2)nc1=O [Compound 15, Trans-2-Methyl-5-[4-[4-(5-Fluoropyrimidin-2-Yl)Piperazin-1-yl]Cyclohexyloxy]-2H-[1,2,4]Triazin-3-One] | – |
| 7.86 | > 10000 | – | – | – | 0.195 | Cn1nc(N(C)[C@H]2CC[C@H](N3CCN(c4cccc(Cl)c4)CC3)CC2)c(=O)n(C)c1=O [Compound 19, Trans-6-({4-[4-(3-Chlorophenyl)Piperazin-1-Yl]Cyclohexyl}Methylamino)-2,4-Dimethyl-2H-[1,2,4]Triazine-3,5-Dione] | – |
| < 5.0 | > 10000 | 0.08 | 0.31 | 0.08 | 0.708 | Cn1ncc(O[C@H]2CC[C@H](N3CCN(c4ncccn4)CC3)CC2)nc1=O [Compound 9, trans-2-Methyl-5-[4-(4-pyrimidin-2-yl-piperizin-1-yl)cyclohexyloxy]-2H-[1,2,4]triazin-3-one] | 0.31 |
| 6.65 | > 10000 | 0.31 | 0.31 | 0.08 | 0.525 | COc1ccnc(N2CCN([C@H]3CC[C@H](Oc4cnn(C)c(=O)n4)CC3)CC2)n1 [Compound 13, Trans-2-Methyl-5-[4-[4-(4-Methoxypyrimidin-2-Yl)Piperazin-1-yl]Cyclohexyloxy]-2H-[1,2,4]triazin-3-One] | – |
| – | – | 0.31 | > 2.5 | 0.08 | 0.166 | Cn1ncc(O[C@H]2CC[C@H](NCC3COc4ccccc4O3)CC2)nc1=O (relative stereo) [Compound 16, Trans-5-[4-[(2,3-Dihydrobenzo[1,4]Dioxin-2-Ylmethyl)Amino]Cyclohexyloxy]-2-Methyl-2H-[1,2,4]Triazin-3-One] | – |
| 6.21 | > 10000 | 0.08 | 0.08 | 0.08 | 0.288 | Cn1ncc(O[C@H]2CC[C@H](N3CCN(c4nccc(Cl)n4)CC3)CC2)nc1=O [Compound 12, Trans-2-Methyl-5-[4-[4-(4-Chloropyrimidin-2-Yl)Piperazin-1-Yl]Cyclohexyloxy]-2H-[1,2,4]Triazin-3-One] | 0.74 |

| SMILES | pKi α1 (α1-adrenergic receptor) | Ki (D2 dopaminergic receptor) [nM] | ED50 (5-HT1A receptor [2]; [4]) [mg/kg] | ED50 (5-HT1A receptor [2]; [5]) [mg/kg] | ED50 (5-HT1A receptor [2]; [6]) [mg/kg] | Ki (5-HT1A receptor [3]) [nM] | ED50 [1] [mg/kg] |
| --- | --- | --- | --- | --- | --- | --- | --- |
| O=C1CC2(CCCC2)CC(=O)N1CCCCN1CCN(c2ncccn2)CC1 [Buspirone, reference compound] | 6.19 | – | – | > 40 | 2.5 | – | > 160 |
